Patent US6075057A, “Inhibition of carbohydrates metabolism by quinone compounds” (priority 1997, dated 2000)

Columns and labels:
[1] = tested on: β-glucosidase (EC 3.2.1.21); assay: Initial screening assay for enzyme inhibition, β-glucosidase; format: biochemical, almonds; conditions: 20 μM inhibitor, 2% MeOH
Protocol: (§1) Optically pure enantiomers of avarol were synthetically prepared. A survey of potential inhibitory activity by avarol against twelve glycosidases was performed according to general procedures^15 (see experimental section). The enzymes tested and their biological sources are listed in Table 1 along with any pertinent references found for a given enzyme. In order to determine a working range for enzyme and substrate concentrations in which the rate of product formation was linear and steady-state kinetics were applicable, initial rate studies with varying substrate concentrations were performed in the absence of inhibitor. The Michaelis constants (Km 's) and Vmax values for these enzymes were determined from these plots using standard graphical analysis procedures as described in ref. 17 and are summarized in Table 2.
(§2) Enzymatic Assays. […] Reactions were monitored at 400 nm (the absorbance of the p-nitrophenol product, ε=3204.5 M^-1 cm^-1) for a given amount of time and the initial rates were calculated and expressed as μmols p-nitrophenol formed per unit enzyme per second. Absportion readings for control reactions were corrected for the small baseline absorbance at time zero. Small discrepancies between time zero absorbance readings in a given inhibition assay and a time zero reading in a control assay were used to correct the overall absorbance change calculated in the inhibition assay. […]

[2] = molecular target: T1, α-glucosidase (EC 3.2.1.20, type IV) (Saccharomyces cerevisiae, UniProt P53341); assay: Initial screening assay for enzyme inhibition, α-glucosidase; format: biochemical, brewer's yeast; conditions: for remaining activity at 10 µM: α-glucosidase, 10 μM inhibitor, 2% MeOH, read-out: % Enzyme activity relative to control
T1 construct: purchased Sigma; host or cells: brewer's yeast
T1 sequence (P53341 whole entry): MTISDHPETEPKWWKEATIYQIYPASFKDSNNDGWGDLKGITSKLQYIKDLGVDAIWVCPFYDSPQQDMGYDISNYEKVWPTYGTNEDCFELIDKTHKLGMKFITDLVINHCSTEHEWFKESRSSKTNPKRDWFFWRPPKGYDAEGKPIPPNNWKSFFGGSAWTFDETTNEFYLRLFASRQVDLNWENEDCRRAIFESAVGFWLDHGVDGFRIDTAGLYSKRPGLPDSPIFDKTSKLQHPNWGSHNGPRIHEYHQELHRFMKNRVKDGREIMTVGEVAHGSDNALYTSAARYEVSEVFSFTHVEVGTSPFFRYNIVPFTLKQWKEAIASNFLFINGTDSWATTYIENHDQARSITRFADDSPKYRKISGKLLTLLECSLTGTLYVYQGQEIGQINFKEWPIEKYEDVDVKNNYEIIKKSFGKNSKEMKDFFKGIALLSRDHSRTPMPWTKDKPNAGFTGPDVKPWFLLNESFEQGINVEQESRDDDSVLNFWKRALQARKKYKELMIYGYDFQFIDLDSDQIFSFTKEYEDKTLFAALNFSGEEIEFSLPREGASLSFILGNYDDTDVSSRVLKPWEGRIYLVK
Protocol: as §1
(§3) Initial screening assays with the enantiomeric avarols indicated significant activity by these compounds against only two of the twelve enzymes studies. […] This can occur when the two species compete for the same site or nearby sites on the enzyme. The equilibria that describe competitive inhibition are shown below. [drawing 3]
(§4) Enzymatic Assays. Piperazine-N,N'-bix-(2-ethanesulfonic acid)(PIPES) buffer, enzymes, and substrates were purchased from Sigma and used as received. Buffer solutions and enzymes (desiccated) were stored at 4° C. p-Nitrophenyl glycoside substrates were stored desiccated at -20° C. Enzyme inhibition assays and initial rate studies were carried out with the appropriate p-nitrophenyl glycoside substrates following the general procedure of Kajimoto et al., J. Am. Chem. Soc. 113:6187 (1991) with the exception that amyloglucosidase (EC 3.2,1.3, Asp. niger) was assayed following the method of Saul et al., Arch. Biochem. Biophys. 221:593 (1983). Assays were performed in a Perkin-Elmer Lambda Array 3840 Spectrophotometer using the built-in drive method (resolution=0.25, average=8) in a quartz cuvette (1 cm pathlength). Background absorption spectra were acquired using millipore filtered water as medium. Steady-state kinetics were maintained by adjusting the amount of enzyme used in each assay so that less than 10% of the substrate was converted to product for the duration of the reaction. Reactions were monitored at 400 nm (the absorbance of the p-nitrophenol product, ε=3204.5 M^-1 cm^-1) for a given amount of time and the initial rates were calculated and expressed as μmols p-nitrophenol formed per unit enzyme per second. Absportion readings for control reactions were corrected for the small baseline absorbance at time zero. Small discrepancies between time zero absorbance readings in a given inhibition assay and a time zero reading in a control assay were used to correct the overall absorbance change calculated in the inhibition assay. Inhibitors were dissolved in uv-grade absolute methanol.
(§5) Typical assay: A 1.5-mL quartz cuvette was charged with 940 μL of PIPES-NaOAc buffer solution (pH 6.56), 20 μL of inhibitor solution, and 20 μL of enzyme solution. The result was mixed well and then equilibrated at 37° C. for two minutes. 20 μL of the appropriate p-nitrophenyl glycoside solution was then added to initiate the reaction with rapid mixing. The reaction was monitored at 400 nm for 1 min and the absorbance change was used to calculate the initial hydrolysis rate. Lineweaver-Burk plots were constructed by repeating this procedure with varying substrate and inhibitor concentrations.

[3] = molecular target: T2, β-galactosidase (EC 3.2.1.23) (Aspergillus niger, UniProt P29853); assay: Initial screening assay for enzyme inhibition, β-galactosidase (Asp. niger); format: biochemical; conditions: 2% MeOH, read-out: % Enzyme activity relative to control
T2 construct: purchased Sigma; host or cells: Aspergillus niger
T2 sequence (P29853 20-1006): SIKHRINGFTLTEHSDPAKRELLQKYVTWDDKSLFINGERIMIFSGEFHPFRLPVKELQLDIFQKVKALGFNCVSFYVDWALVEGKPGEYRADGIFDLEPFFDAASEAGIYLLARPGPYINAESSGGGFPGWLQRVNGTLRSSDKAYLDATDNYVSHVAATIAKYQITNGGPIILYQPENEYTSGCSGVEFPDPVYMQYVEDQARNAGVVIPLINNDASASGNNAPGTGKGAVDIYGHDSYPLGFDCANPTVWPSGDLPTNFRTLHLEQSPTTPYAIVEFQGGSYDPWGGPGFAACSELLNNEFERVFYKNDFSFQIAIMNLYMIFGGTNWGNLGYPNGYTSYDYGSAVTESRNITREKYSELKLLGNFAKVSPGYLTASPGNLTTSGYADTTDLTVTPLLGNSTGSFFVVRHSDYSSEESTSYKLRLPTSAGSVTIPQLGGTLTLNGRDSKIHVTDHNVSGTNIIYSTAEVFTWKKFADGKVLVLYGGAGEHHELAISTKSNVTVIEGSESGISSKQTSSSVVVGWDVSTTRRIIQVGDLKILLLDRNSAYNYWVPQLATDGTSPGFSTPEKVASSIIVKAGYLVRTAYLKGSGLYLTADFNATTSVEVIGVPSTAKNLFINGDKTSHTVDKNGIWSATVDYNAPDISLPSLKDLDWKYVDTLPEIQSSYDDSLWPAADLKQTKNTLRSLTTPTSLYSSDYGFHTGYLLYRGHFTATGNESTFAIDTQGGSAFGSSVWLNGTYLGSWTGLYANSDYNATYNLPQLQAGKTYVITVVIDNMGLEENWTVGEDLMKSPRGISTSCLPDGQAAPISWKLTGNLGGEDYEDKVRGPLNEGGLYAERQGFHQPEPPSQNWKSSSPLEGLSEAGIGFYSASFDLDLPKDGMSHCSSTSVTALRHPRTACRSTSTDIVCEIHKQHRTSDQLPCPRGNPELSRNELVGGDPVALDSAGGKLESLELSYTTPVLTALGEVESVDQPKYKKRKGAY
Protocol: as §1
as §4, with “Inhibitors were dissolved in uv-grade absolute methanol.” left out
(§6) Typical assay: A 1.5-mL quartz cuvette was charged with 940 μL of PIPES-NaOAc buffer solution (pH 6.56), 20 μL of inhibitor solution, and 20 μL of enzyme solution. […] The reaction was monitored at 400 nm for 1 min and the absorbance change was used to calculate the initial hydrolysis rate. […]

[4] = molecular target: T3, α-L-fucosidase (EC 3.2.1.51) (Bos taurus, UniProt Q2KIM0); assay: Initial screening assay for enzyme inhibition, α-L-fucosidase; format: biochemical, bovine kidney; conditions: α-L-fucosidase, 2% MeOH, read-out: % Enzyme activity relative to control
T3 construct: purchased Sigma; host or cells: bovine kidney
T3 sequence (Q2KIM0 23-468): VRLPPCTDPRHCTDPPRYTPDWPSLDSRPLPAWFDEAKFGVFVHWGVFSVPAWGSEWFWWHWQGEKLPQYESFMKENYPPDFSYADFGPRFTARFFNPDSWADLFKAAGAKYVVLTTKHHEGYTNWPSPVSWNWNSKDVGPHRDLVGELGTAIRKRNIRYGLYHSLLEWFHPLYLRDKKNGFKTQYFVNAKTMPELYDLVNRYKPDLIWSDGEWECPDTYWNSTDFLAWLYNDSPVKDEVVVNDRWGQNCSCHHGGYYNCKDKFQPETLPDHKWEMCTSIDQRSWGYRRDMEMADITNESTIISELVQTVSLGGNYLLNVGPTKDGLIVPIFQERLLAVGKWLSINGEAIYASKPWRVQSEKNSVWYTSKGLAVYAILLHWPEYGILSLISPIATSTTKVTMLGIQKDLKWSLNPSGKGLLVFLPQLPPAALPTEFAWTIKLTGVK
Protocol: as §1
as §4, with “Inhibitors were dissolved in uv-grade absolute methanol.” left out
as §6

[5] = tested on: α-galactosidase (EC 3.2.1.22); assay: Initial screening assay for enzyme inhibition, α-galactosidase (E. coli); format: biochemical, Escherichia coli; conditions: 2% MeOH
Protocol: as §1
as §4, with “Inhibitors were dissolved in uv-grade absolute methanol.” left out
as §6

[6] = molecular target: T4, α-galactosidase (EC 3.2.1.22) (Coffea arabica, UniProt Q42656); assay: Initial screening assay for enzyme inhibition, α-galactosidase (green coffee beans); format: biochemical; conditions: α-galactosidase (green coffee beans), 2% MeOH, read-out: % Enzyme activity relative to control
T4 construct: purchased Sigma; host or cells: green coffee beans
T4 sequence (Q42656 16-378): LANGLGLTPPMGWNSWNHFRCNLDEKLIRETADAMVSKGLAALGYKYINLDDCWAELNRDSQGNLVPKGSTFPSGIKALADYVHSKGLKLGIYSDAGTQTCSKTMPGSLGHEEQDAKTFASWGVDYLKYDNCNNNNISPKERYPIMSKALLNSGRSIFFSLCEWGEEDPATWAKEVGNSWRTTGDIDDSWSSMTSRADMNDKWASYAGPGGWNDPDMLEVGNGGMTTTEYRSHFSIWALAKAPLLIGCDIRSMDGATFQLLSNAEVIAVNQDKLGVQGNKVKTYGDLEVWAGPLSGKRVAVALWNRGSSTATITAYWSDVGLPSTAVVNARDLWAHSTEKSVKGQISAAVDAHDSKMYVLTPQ
Protocol: as §1
as §4, with “Inhibitors were dissolved in uv-grade absolute methanol.” left out
as §6

[7] = tested on: amyloglucosidase (EC 3.2.1.3); assay: Initial screening assay for enzyme inhibition, amyloglucosidase; format: biochemical, Aspergillus niger; conditions: amyloglucosidase, 2% MeOH
Protocol: as §1, §4, §5

[8] = tested on: β-mannosidase (EC 3.2.1.25); assay: Initial screening assay for enzyme inhibition, β-mannosidase; format: biochemical, snail; conditions: 2% MeOH
Protocol: as §1
as §4, with “Inhibitors were dissolved in uv-grade absolute methanol.” left out
as §6

[9] = molecular target: T5, α-glucosidase (brewer's yeast) (Saccharomyces cerevisiae, UniProt P53341); assay: Lineweaver-Burk analysis of inhibition of α-glucosidase; format: biochemical; conditions: replot of Lineweaver-Burk slopes, linear extrapolation; pH 6.56, 37° C.
T5 construct: purchased Sigma; host or cells: brewer's yeast
T5 sequence (P53341 whole entry): as the sequence (P53341 whole entry) above
Description: as §3
The equilibria describing this phenomenon are shown below. [drawing 4] The α factor represents the amount by which KS changes when I binds to the enzyme. The overall equilibrium constant for the formation of ESI remains the same regardless of which path was taken in its formation. Since the ES and ESI complexes are equally efficient in producing product, Vmax remains unchanged and Km is increased in the presence of inhibitor.
as §2

Structure (SMILES) | % Enzyme activity relative to control [1] [%] | activity versus naturally-occurring enantiomer, α-glucosidase (in words) ([2]; versus (+)-avarol) | remaining activity at 10 µM [2] [%] | remaining activity at 20 µM ([3]; 20 μM inhibitor) [%] | remaining activity at 20 µM ([4]; 20 μM inhibitor) [%] | % Enzyme activity relative to control ([5]; 20 μM inhibitor) [%] | remaining activity at 20 µM ([6]; 20 μM inhibitor) [%] | % Enzyme activity relative to control ([7]; 20 μM inhibitor) [%] | % Enzyme activity relative to control ([8]; 20 μM inhibitor) [%] | Ki [9] [µM] | remaining activity at 40 µM ([3]; 40 μM inhibitor) [%] | remaining activity at 40 µM ([4]; 40 μM inhibitor) [%] | % Enzyme activity relative to control ([5]; 40 μM inhibitor) [%] | remaining activity at 40 µM ([6]; 40 μM inhibitor) [%] | % Enzyme activity relative to control ([7]; 40 μM inhibitor) [%] | % Enzyme activity relative to control ([8]; 40 μM inhibitor) [%]
CC1=CCC[C@@H]2[C@@](C)(Cc3cc(O)ccc3O)[C@H](C)CC[C@@]12C [(-)-avarol] | 96 | significantly more active than the naturally-occurring enantiomer | 43 | 111 | 108 | 94 | 83 | 94 | 101 | 9.5 |  |  |  |  |  | 
CC1=CCC[C@H]2[C@](C)(Cc3cc(O)ccc3O)[C@@H](C)CC[C@]12C [(+)-avarol, (+)-Avarol] | 102 |  | 63 |  |  |  |  |  |  | 25 | 104 | 101 | 90 | 82 | 113 | 106
